Tested on: BA cells differentiated from hiPS-derived BAP
Test: Lipolysis: free glycerol release by BA cells after forskolin stimulation
Format: cell-based, human
Details: forskolin 10 μM, 24 hours; BAP derived at day 12 or 16, 5 passages, differentiated for 17 days
Protocol: Lipolysis: The BAP were differentiated for 17 days. Then the cells were maintained for 24 hours in DMEM 1g/Iglucose supplemented with BSA 0,2%. Lipolysis was stimulated with forskolin (10 μM) for 24 hours.

Compound: C=C[C@@]1(C)CC(=O)[C@]2(O)[C@@]3(C)[C@@H](O)CCC(C)(C)[C@@H]3[C@H](O)[C@H](OC(C)=O)[C@@]2(C)O1 [forskolin]
- increase of the free glycerol released, treated cells compared to untreated cells: about 60%

Source: patent US20200362309A1, “Method for preparing BAP or BA cells” (Anagenesis Biotechnologies S.A.S., priority 2017, published 2020)
